{"source": "patent US10259843B2", "about": "“Cyclic tetrapeptide stereoisomers” (University of Kansas, priority 2014, dated 2019)", "key": {"[1]": {"molecular_target": "kappa opioid receptor (KOR) (Homo sapiens, UniProt P41145)", "sequence (P41145 whole entry)": "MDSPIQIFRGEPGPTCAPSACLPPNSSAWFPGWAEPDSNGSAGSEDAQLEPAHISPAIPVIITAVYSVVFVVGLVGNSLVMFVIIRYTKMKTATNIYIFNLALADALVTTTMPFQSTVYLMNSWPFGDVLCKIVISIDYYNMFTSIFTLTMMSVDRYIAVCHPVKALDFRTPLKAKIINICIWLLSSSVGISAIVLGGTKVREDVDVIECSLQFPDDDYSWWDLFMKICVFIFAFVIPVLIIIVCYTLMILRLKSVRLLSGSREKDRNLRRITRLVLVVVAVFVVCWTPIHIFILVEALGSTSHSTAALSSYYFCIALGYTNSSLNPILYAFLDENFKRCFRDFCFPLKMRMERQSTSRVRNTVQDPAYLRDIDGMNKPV", "assay": "radioligand binding assay, kappa opioid receptor affinity", "conditions": "n in parentheses; read-out: Ki (nM ± SEM) KOR", "procedure": "(§1) The peptides of Table 1 shown below in Tables 3 and 4 were evaluated in radioligand binding assays for mu, kappa and delta opioid receptor affinities in vitro, and in the mouse 55° C. warm water tail withdrawal assay in vivo for antinociception and opioid antagonist activity."}, "mu opioid receptor (MOR)": {"molecular_target": "mu opioid receptor (MOR) (Homo sapiens, UniProt P35372)", "sequence (P35372 whole entry)": "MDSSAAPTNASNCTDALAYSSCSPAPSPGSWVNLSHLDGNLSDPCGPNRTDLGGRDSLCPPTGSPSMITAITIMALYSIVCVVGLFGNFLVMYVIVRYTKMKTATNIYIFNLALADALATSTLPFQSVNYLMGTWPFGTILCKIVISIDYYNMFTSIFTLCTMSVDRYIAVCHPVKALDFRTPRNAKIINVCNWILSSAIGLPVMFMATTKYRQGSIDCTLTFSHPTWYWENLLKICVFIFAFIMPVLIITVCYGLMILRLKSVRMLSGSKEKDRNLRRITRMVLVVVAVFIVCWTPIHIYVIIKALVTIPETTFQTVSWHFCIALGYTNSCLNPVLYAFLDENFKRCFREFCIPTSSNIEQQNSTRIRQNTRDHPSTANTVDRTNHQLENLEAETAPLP", "assay": "radioligand binding assay, mu opioid receptor affinity", "conditions": "n in parentheses; read-out: Ki (nM ± SEM) MOR", "procedure": "as §1"}, "[2]": {"molecular_target": "delta opioid receptor (DOR) (Homo sapiens, UniProt P41143)", "sequence (P41143 whole entry)": "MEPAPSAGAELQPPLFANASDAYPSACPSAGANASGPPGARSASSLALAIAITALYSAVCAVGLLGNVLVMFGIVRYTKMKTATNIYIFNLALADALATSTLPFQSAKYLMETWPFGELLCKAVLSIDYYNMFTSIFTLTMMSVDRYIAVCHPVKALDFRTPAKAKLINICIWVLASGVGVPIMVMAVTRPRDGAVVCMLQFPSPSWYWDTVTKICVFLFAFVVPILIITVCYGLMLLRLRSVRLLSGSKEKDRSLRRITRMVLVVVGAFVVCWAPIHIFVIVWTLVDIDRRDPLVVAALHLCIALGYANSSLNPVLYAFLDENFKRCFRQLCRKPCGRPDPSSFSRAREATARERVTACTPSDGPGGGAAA", "assay": "radioligand binding assay, delta opioid receptor affinity", "conditions": "n in parentheses; read-out: Ki (nM ± SEM) DOR", "procedure": "as §1"}, "[3]": {"assay": "mouse 55° C. warm water tail withdrawal assay, antinociception", "assay_type": "in vivo", "procedure": "as §1"}, "[4]": {"test_system": "opioid receptors (KOR, MOR, DOR)", "assay": "mouse 55° C. warm water tail withdrawal assay, opioid antagonist activity", "assay_type": "in vivo", "conditions": "30 nmol", "procedure": "as §1"}, "formalin assay": {"assay": "formalin assay", "assay_type": "in vivo, rodent", "conditions": "10 mg/kg oral, vs saline i.p.", "procedure": "It entails the injection of a dilute solution of formalin into the surface of the rodent's hindpaw, followed by the scoring of stereotypical behaviors such as flinching, licking, and biting of the affected hindpaw. The behaviors last for approximately 1 hour, with the early or acute stage (directly after injection) reflecting direct activation of nociceptors and the late or tonic phase (15 to 20 minutes after the injection) reflecting inflammation."}, "[5]": {"assay": "acetic acid stretching assay", "assay_type": "in vivo", "conditions": "10 mg/kg and 30 mg/kg", "procedure": "The acetic acid stretching assay is a model for visceral pain and is the most popular chemical assay of nociception. In the assay, subjects are given a subcutaneous (s.c.) injection of drug or vehicle 60 min before an intraperitoneal (i.p.) injection of 0.6% acetic acid. After administration of the acetic acid, the subjects are placed in clear cages (11×7×5 in) and scored for abdominal stretches during a 20 min observation period. Stretching was defined as body contortions, belly pressing, and extension of the hind limbs from which visceral nociception was inferred. […] And while the effect of 3607 was not as pronounced as with morphine, the observed reductions in stretching were significant, indication that 3607 has a significant pain reduction effect."}, "[6]": {"assay": "nerve constriction assay for neuropathic pain", "assay_type": "in vivo, rodent", "conditions": "3 mg/kg, 10 mg/kg, and 30 mg/kg; compared to 50 mg/kg gabapentin", "procedure": "In the nerve constriction assay, a nerve of a subject rodent is chronically constricted or cuffed and then the animal is assessed for response to pain stimuli such a paw withdrawal. […] Gabapentin is an accepted treatment for neuropathic pain."}, "acute tolerance model": {"assay": "acute tolerance model", "conditions": "in vivo"}, "[7]": {"assay": "rotorod test for sedation and motor coordination", "assay_type": "in vivo", "design": "key: ✓ indicates tested (if no other comment then no significant effect)", "conditions": "10 mg/kg, p.o."}, "locomotion (CLAMS)": {"assay": "locomotion (CLAMS)", "assay_type": "in vivo", "design": "key: ✓ indicates tested (if no other comment then no significant effect)", "conditions": "10 mg/kg, p.o."}, "respiratory depression": {"assay": "respiratory depression", "assay_type": "in vivo", "design": "key: ✓ indicates tested (if no other comment then no significant effect)"}, "[8]": {"assay": "other pain models (formalin, acetic acid stretching, nerve constriction; FIGS. 1-3B)", "conditions": "in vivo", "text": "These models are based on the formalin assay, the acetic acid stretching assay, and the nerve constriction assay. The formalin and acetic acid stretching assays are indicative of activity against inflammatory pain (i.e., nociceptive pain) and the nerve constriction assay is indicative of activity against neuropathic pain."}, "[9]": {"assay": "conditioned place response assay", "conditions": "oral administration of the peptides"}}, "note": "“Also recorded” adds a separate entry of the source. Non-standard residues stand in square brackets, D forms with d. Residues, ends and D or L forms follow the SMILES beside them.", "data": [{"smiles": "O=C1N[C@H](Cc2ccccc2)C(=O)N2CCC[C@@H]2C(=O)N[C@H](Cc2ccccc2)C(=O)N[C@H]1Cc1c[nH]c2ccccc12", "note": "[JVA 3607, cyclo-[D-Phe-D-Pro-D-Phe-Trp]] (cyclo([dF][dP][dF]W))", "values": [{"measurement": "Ki", "setting": "[1]", "value": "2560 ± 480", "unit": "nM"}, {"measurement": "Ki", "setting": "mu opioid receptor (MOR)", "value": "7780 ± 410", "unit": "nM"}, {"measurement": "Ki", "setting": "[2]", "value": "> 10000", "unit": "nM"}, {"measurement": "ED50 (95% CI) i.c.v.", "setting": "[3]; antinociception, i.c.v.", "value": 1.00, "unit": "nmol"}, {"measurement": "ED50 (95% CI) p.o.", "setting": "[3]; antinociception, p.o.", "value": 4.12, "unit": "mg/kg"}, {"measurement": "Receptors involved", "setting": "[3]; opioid receptors contributing to antinociception", "value": "mu opioid receptors (MOR) are not involved; also recorded: KOR, DOR"}, {"measurement": "Antagonism (dose, nmol)", "setting": "[4]", "value": "None (30)"}, {"measurement": "time spent licking after formalin administration", "setting": "formalin assay", "value": "significant reduction"}, {"measurement": "antinociception (abdominal stretches)", "setting": "[5]", "value": "significant antinociception"}, {"measurement": "relief of neuropathic pain", "setting": "[6]", "value": "significant relief of neuropathic pain"}, {"measurement": "Acute Tolerance ED50 shift", "setting": "acute tolerance model", "value": 5.19, "unit": "fold"}, {"measurement": "Rotorod (10 mg/kg, p.o.)", "setting": "[7]", "value": "✓"}, {"measurement": "Locomotion (CLAMS, 10 mg/kg, p.o.)", "setting": "locomotion (CLAMS)", "value": "✓"}, {"measurement": "Respiratory depression 10 mg/kg p.o.", "setting": "respiratory depression", "value": "✓"}, {"measurement": "analgesic activity in other pain models", "setting": "[8]", "value": "significant analgesic properties; also recorded: show activity against pain"}, {"measurement": "conditioned place preference (drug seeking behavior) or conditioned place aversion", "setting": "[9]", "value": "no evidence of inducing drug seeking behavior; also recorded: do not show evidence of conditioned place preference (drug seeking behavior) or conditioned place aversion"}]}]}
